How the values were obtained:
Type in all cases: cell-based, human
Myeloid DCs = experiment: IL-12 production by myeloid DCs (IGEN analysis)
Method: (§1) The blood myeloid dendritic cells (mDC) were isolated from the BDCA-4 negative cell fraction using the Miltenyi Microbead technology system (Miltenyi BioTec, Auburn, Calif.). Cells were resuspended in 4° C. separation buffer (PBS- pH 7.2, 0.5% BSA-2.5 gm, 2 mM 0.5M EDTA) at 20 μl per 10^7 total cells. […] The cells were resuspended in 500 μL of separation buffer per 10^8 total cells. […] BDCA-1^+mDCs were enriched using the Miltenyi Automacs POSSELD software. The cells retained in the column were eluted into a sterile 50 mL polystyrene conical tube.
(§2) Compounds, reconstituted in dimethyl sulfoxide (DMSO, sterile cell culture grade, Sigma Chemical Co., St. Louis, Mo.) were added at 2× their final concentration to a 96-well flat-bottom sterile tissue culture polystyrene plate (Benton Dickinson Labware, Franklin Lakes, N.J.). Cells were then added at 2× the final concentration (final cell concentration is 1×10^6 cells/mL). Plates were incubated for 16-24 hours at 37° C., 5% CO2. After incubation, plates were centrifuged at 1000 RPM for 10 minutes at 25° C. Supernatants were transferred to a 0.75 mL sterile polypropylene Matrix box (Matrix, Hudson, N.Y.) and stored at −20° C. for future cytokine analysis.
IL-12 analysis was performed using IGEN analysis. More than two hours prior to performing the analysis, a 1:20 dilution of M-280 Streptavidin Dynabeads was prepared in IGEN buffer. Also, a 1 μg/mL solution of biotinylated IL-12 antibody (Cat. No. AHC7129, Biosource International, Camarillo, Calif.) in IGEN buffer was prepared. The 1:20 Dynabeads solution and the biotinylated antibody solution were mixed together and incubated 30 minutes at room temperature, then stored at 4° C. until the analysis was performed.
To perform the analysis, 50 μL of the Dynabeads/biotinylated antibody solution was added to each well of a 96-well plate. […] 25 μL of sample was added to each well, each sample containing either a standard dilution or an experimental sample.
The 96-well plate was tapped to mix the contents of each well, covered with plate sealer, and incubated at room temperature for 2.5 hours. Following the incubation, 100 μL of IGEN PBS Buffer was added to each well for a total assay volume of 200 μL and read on the IGEN M-8 Analyzer (IGEN International, Inc., Gaithersburg, Md.) using the hIL-12 protocol.

[1] = tested on: myeloid dendritic cells (mDCs); experiment: Activation of blood myeloid dendritic cells (CD80/HLA-DR staining, flow cytometry); conditions: two donors; 1 μM IRM or 3 μM CpG2216, 16-24 hours; HLA-DR positive with increased CD80; FIG. 1
Method: as §1, §2

[2] = tested on: plasmacytoid dendritic cells (pDCs); experiment: Activation of plasmacytoid dendritic cells (CD80/HLA-DR staining, flow cytometry); conditions: two donors; 1 μM IRM or 3 μM CpG2216, 16-24 hours; HLA-DR positive with increased CD80; FIG. 2
Method: The cells were resuspended in 500 μL of separation buffer per 10^8 total cells. […] The cells retained in the column were eluted into a sterile 50 mL polystyrene conical tube.
as §2

`CCCc1nc2c(N)nc3ccccc3c2s1` [IRM9, 2-propylthiazolo[4,5-c]quinolin-4-amine] was tested, and the IL-12 (Myeloid DCs; donor3, 3.0 μM IRM) was 693 pg/mL.

`CCc1nc2c(N)nc3ccccc3c2n1CCCCNS(C)(=O)=O` [IRM36, N-[4-(4-amino-2-ethyl-1H-imidazo[4,5-c]quinolin-1-yl)butyl]methanesulfonamide] was tested, and the “activation of myeloid dendritic cells (mDCs) in vitro” value [1] was “not activated”, the “activation of plasmacytoid dendritic cells (pDCs) in vitro” value [2] was “activated” and the IL-12 (Myeloid DCs; donor3, 3.0 μM IRM) was 57 pg/mL. The IL-12 (Myeloid DCs; donor4, 3.0 μM IRM) was 77 pg/mL.

`CCOCc1nc2c(N)nc3ccccc3c2n1CCCNC(=S)Nc1cccc(C#N)c1` [IRM37, N-{3-[4-amino-2-(ethoxymethyl)-1H-imidazo[4,5-c]quinolin-1-yl]propyl}-N′-(3-cyanophenyl)thiourea] gave an IL-12 (Myeloid DCs; donor3, 3.0 μM IRM) of 296 pg/mL and an IL-12 (Myeloid DCs; donor4, 3.0 μM IRM) of 491 pg/mL.

In the case of `Cc1nc2c(N)nc3ccccc3c2n1CCCCNC(=O)N1CCCCC1` [IRM38, N-[4-(4-amino-2-methyl-1H-imidazo[4,5-c]quinolin-1-yl)butyl]piperidine-1-carboxamide], the IL-12 (Myeloid DCs; donor3, 3.0 μM IRM) is reported as 17 pg/mL and the IL-12 (Myeloid DCs; donor4, 3.0 μM IRM) is reported as 20 pg/mL.

For `CCc1nc2c(N)nc3ccccc3c2n1CC(C)(C)NC(=O)Nc1ccccc1` [IRM39, N-[2-(4-amino-2-ethyl-1H-imidazo[4,5-c]quinolin-1-yl)-1,1-dimethylethyl]-N′-phenylurea], the IL-12 (Myeloid DCs; donor3, 3.0 μM IRM) was 280 pg/mL and the IL-12 (Myeloid DCs; donor4, 3.0 μM IRM) was 400 pg/mL.

`CCOCc1nc2c(N)nc3ccccc3c2n1CC(C)(C)O` [IRM40, 4-amino-α,α-dimethyl-2-ethoxymethyl-1H-imidazo[4,5-c]quinolin-1-ethanol] was tested, and the IL-12 (Myeloid DCs; donor3, 3.0 μM IRM) was 517 pg/mL and the IL-12 (Myeloid DCs; donor4, 3.0 μM IRM) was 765 pg/mL.

With `CC(C)Cn1cnc2c(N)nc3ccccc3c21` [IRM41, 1-(2-methylpropyl)-1H-imidazo[4,5-c]quinolin-4-amine] the IL-12 (Myeloid DCs; donor3, 3.0 μM IRM) was 17 pg/mL and the IL-12 (Myeloid DCs; donor4, 3.0 μM IRM) was 39 pg/mL.

Reference: patent US20040171086A1, “Selective modulation of TLR-mediated biological activity” (3M Innovative Properties Company, priority 2003, published 2004)
